Results as given in patent publication US12590066B2, “Fused-heterocyclyl-carbonohydrazonoyl dicyanide compounds and use thereof” (KOREA INSTITUTE OF SCIENCE AND TECHNOLOGY, priority 2020, dated 2026).

Experiments:
[1] = biological target: T1, CYP2C19 (Homo sapiens, UniProt P33261); test: Inhibitory effect on CYP coenzyme activity, human liver microsomes; assay type: in vitro ADME; details: 10 μM compound, human liver microsomes 0.25 mg/mL, substrate S-mephenytoin, 15 minutes
T1 construct: human liver microsomes (0.25 mg/mL); from tissue; host or cells: human liver microsomes
T1 sequence (P33261 whole entry): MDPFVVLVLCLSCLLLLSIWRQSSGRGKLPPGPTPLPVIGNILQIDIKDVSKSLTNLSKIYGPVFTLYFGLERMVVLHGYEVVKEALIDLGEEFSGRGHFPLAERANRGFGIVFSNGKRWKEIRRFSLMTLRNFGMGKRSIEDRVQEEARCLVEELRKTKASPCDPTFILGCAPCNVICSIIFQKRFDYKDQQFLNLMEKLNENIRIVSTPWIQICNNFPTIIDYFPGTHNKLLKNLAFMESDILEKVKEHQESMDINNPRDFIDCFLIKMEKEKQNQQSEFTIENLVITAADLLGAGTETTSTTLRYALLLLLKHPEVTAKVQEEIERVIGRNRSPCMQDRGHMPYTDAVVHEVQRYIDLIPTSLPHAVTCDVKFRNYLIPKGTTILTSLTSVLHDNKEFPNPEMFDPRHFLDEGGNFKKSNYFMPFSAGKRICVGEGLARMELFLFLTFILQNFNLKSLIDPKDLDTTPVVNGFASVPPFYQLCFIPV
Summary of the method: (§1)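 Compounds, tested at 10 μM, were incubated with human liver microsomes and a substrate cocktail including phenacetin, diclofenac, S-mephenytoin and dextromethorphan in phosphate buffer at pH 7.4 and 37 °C. Results are percent of control CYP activity.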

[2] = biological target: T2, CYP1A2 (Homo sapiens, UniProt P05177); test: as above; assay type: in vitro ADME; details: 10 μM compound, human liver microsomes 0.25 mg/mL, substrate phenacetin, 15 minutes
T2 construct: human liver microsomes (0.25 mg/mL); from tissue; host or cells: human liver microsomes
T2 sequence (P05177 1-516): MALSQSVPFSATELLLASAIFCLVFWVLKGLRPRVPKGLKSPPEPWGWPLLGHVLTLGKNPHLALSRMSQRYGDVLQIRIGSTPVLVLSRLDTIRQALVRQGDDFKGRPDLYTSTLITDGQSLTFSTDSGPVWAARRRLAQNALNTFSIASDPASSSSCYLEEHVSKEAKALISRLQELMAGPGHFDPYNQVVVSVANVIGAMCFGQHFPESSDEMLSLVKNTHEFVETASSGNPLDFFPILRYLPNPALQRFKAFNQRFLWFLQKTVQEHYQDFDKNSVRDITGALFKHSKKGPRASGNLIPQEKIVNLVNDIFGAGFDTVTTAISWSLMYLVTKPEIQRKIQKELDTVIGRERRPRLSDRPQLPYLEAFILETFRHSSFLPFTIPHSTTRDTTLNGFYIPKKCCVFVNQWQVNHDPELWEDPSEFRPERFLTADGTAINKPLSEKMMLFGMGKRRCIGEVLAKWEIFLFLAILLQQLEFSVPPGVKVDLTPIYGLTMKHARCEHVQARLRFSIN
Summary of the method: as §1

[3] = biological target: T3, CYP2D6 (Homo sapiens, UniProt P10635); test: as above; assay type: in vitro ADME; details: 10 μM compound, human liver microsomes 0.25 mg/mL, substrate dextromethorphan, 15 minutes
T3 construct: human liver microsomes (0.25 mg/mL); from tissue; host or cells: human liver microsomes
T3 sequence (P10635 whole entry): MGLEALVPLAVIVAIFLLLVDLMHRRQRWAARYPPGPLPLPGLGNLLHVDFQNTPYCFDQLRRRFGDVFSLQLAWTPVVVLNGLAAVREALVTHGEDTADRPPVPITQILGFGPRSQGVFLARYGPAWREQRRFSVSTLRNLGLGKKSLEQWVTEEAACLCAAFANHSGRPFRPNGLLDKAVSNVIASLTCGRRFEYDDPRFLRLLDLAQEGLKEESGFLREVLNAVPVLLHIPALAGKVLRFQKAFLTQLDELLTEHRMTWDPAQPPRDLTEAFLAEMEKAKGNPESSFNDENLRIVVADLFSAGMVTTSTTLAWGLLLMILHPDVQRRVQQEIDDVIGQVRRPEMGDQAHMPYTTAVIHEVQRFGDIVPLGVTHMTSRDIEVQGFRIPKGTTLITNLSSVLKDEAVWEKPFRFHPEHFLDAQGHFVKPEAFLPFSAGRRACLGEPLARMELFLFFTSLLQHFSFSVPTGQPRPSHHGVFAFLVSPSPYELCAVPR
Summary of the method: as §1

[4] = biological target: T4, CYP2C9 (Homo sapiens, UniProt P11712); test: as above; assay type: in vitro ADME; details: 10 μM compound, human liver microsomes 0.25 mg/mL, substrate diclofenac, 15 minutes
T4 construct: human liver microsomes (0.25 mg/mL); from tissue; host or cells: human liver microsomes
T4 sequence (P11712 whole entry): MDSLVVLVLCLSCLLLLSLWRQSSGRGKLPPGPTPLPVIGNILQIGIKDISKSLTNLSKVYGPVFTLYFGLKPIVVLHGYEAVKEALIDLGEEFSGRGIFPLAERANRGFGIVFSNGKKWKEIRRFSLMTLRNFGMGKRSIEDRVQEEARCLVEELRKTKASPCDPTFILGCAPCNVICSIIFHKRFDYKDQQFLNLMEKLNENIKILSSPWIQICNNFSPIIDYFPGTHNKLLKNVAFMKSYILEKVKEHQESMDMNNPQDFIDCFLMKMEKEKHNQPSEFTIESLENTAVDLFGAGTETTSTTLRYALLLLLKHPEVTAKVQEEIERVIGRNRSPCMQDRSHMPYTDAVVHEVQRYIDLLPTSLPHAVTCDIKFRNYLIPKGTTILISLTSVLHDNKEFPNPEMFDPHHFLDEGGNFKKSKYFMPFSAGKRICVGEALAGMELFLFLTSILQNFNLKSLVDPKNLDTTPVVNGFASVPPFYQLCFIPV
Summary of the method: as §1

[5] = biological target: T5, CYP3A4 (Homo sapiens, UniProt P08684); test: as above; assay type: in vitro ADME; details: 10 μM compound, human liver microsomes 0.25 mg/mL, substrate midazolam, 15 minutes
T5 construct: human liver microsomes (0.25 mg/mL); from tissue; host or cells: human liver microsomes
T5 sequence (P08684 whole entry): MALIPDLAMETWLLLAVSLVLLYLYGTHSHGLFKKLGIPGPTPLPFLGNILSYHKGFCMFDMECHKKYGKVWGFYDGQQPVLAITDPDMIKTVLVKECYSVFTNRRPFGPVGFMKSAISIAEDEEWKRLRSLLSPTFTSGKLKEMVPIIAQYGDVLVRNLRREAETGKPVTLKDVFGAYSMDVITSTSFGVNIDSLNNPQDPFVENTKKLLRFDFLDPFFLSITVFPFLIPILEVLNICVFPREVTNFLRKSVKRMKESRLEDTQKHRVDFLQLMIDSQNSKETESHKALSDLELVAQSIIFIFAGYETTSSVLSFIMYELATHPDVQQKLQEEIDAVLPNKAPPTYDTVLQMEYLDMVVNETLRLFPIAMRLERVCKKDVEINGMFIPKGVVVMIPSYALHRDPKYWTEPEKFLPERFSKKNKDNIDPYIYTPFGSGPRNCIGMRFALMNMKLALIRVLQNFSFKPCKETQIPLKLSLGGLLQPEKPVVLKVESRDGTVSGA
Summary of the method: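 Cocktail inhibition: HLM 0.25 mg/mL, 0.1 M PO4 pH 7.4, 37 °C; 5 min preinc., then 15 min + NADPH regen.; cpd 10 μM; probes phenacetin/diclofenac/S-mephenytoin/dextromethorphan/midazolam at 50/10/100/5/2.5 μM; LC-MS/MS MRM; % remaining activity vs no-compound control.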

[6] = biological target: T6, tau protein (Homo sapiens, UniProt P10636); test: Tau-BiFC cell model, inhibition of Forskolin-induced tau protein aggregation; assay type: cell-based; details: Forskolin 30 μM, 48 hours; for Tau BiFC in cells Response (% @10 μM): 10 μM compound, Forskolin-only group = 100% tau protein-aggregated state; for IC50: tau-BiFC cells
T6 construct: BiFC fluorescent-protein fragments (type and halves not specified); expressed in transfected cells
T6 sequence (P10636 1-441 isoform P10636-8): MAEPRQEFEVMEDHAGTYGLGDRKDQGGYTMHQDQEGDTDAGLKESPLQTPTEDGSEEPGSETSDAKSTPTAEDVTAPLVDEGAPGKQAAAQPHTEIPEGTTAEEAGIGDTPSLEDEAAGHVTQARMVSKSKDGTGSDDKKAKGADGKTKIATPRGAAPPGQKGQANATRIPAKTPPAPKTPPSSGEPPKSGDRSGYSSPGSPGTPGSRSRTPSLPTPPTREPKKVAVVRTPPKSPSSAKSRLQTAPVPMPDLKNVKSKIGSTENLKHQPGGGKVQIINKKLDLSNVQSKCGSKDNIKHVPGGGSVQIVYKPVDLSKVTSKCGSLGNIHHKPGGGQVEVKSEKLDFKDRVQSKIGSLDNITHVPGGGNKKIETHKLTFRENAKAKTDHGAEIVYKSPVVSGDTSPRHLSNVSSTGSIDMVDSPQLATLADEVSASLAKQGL
Summary of the method: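 Tau-BiFC cells co-treated 48 h with 30 μM forskolin and compounds (1, 3, 10 μM screen; 0.01–30 μM dose-response). BiFC fluorescence normalized to forskolin-only (100% aggregation) minus untreated gives aggregation inhibition and IC50; viability as Hoechst-stained nuclei count relative to forskolin-only.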

| Structure (SMILES) | CYP2C19 coenzyme activity (%) with respect to control group not treated [1] | CYP1A2 coenzyme activity (%) with respect to control group not treated [2] | CYP2D6 coenzyme activity (%) with respect to control group not treated [3] | CYP2C9 coenzyme activity (%) with respect to control group not treated [4] | CYP3A4 coenzyme activity (%) with respect to control group not treated [5] | Tau BiFC in cells Response (% @10 μM) [6] | IC50 [6] |
| --- | --- | --- | --- | --- | --- | --- | --- |
| N#CC(C#N)=NNc1ccc2c(c1)sc(=O)n2C(F)F [Compound 19, (3-(difluoromethyl)-2-oxo-2,3-dihydrobenzo[d]thiazol-6-yl)carbonohydrazonoyl dicyanide] | 75.7% | 52.5% | 40.5% | 23.3% | 81.8% | 0% | 100 nM |
| Cn1ccc2ccc(NN=C(C#N)C#N)cc2c1=O [Compound 2, (2-methyl-1-oxo-1,2-dihydroisoquinolin-7-yl)carbonohydrazonoyl dicyanide] | 79.2% | 43.5% | 94.3% | 77.9% | 89% | 0% | – |
| CC(C)n1c(=O)oc2cc(NN=C(C#N)C#N)ccc21 [Compound 20, (3-isopropyl-2-oxo-2,3-dihydrobenzo[d]oxazol-6-yl)carbonohydrazonoyl dicyanide] | 85.7% | 87.3% | 98.1% | 32.3% | 98.8% | 0% | 100 nM |
| CC(C)n1c(=O)n(C(C)C)c2ncc(NN=C(C#N)C#N)cc21 [Compound 34, (1,3-diisopropyl-2-oxo-2,3-dihydro-1H-imidazo[4,5-b]pyridin-6-yl)carbonohydrazonoyl dicyanide] | 88.8% | >100% | 99.1% | 41.9% | 90.2% | −45% | 50 nM |
| CC(C)n1c(=O)sc2cc(NN=C(C#N)C#N)ccc21 [Compound 18, (3-isopropyl-2-oxo-2,3-dihydrobenzo[d]thiazol-6-yl)carbonohydrazonoyl dicyanide] | 63.2% | 81.4% | 88.1% | 7.5% | 78.3% | 0% | 40 nM |
| CCn1c(=O)n(C)c2cc(NN=C(C#N)C#N)cnc21 [Compound 48, (3-ethyl-1-methyl-2-oxo-2,3-dihydro-1H-imidazo[4,5-b]pyridin-6-yl)carbonohydrazonoyl dicyanide] | >100% | >100% | >100% | >100% | >100% | −18% | 60 nM |
| CCn1c(=O)n(C)c2ccc(NN=C(C#N)C#N)cc21 [Compound 35, (3-ethyl-1-methyl-2-oxo-2,3-dihydro-1H-benzo[d]imidazol-5-yl)carbonohydrazonoyl dicyanide] | 100% | 93.1% | >100% | 72.5% | >100% | −44% | 10 nM |
| Cn1c(=O)n(C)c2ncc(NN=C(C#N)C#N)cc21 [Compound 12, (1,3-dimethyl-2-oxo-2,3-dihydro-1H-imidazo[4,5-b]pyridin-6-yl)carbonohydrazonoyl dicyanide] | 92.2% | 99.6% | >100% | 93.4% | >100% | 0% | 870 nM |
| N#CC(C#N)=NNc1ccc2c(c1)n(C(F)F)c(=O)n2C(F)F [Compound 24, (1,3-bis(difluoromethyl)-2-oxo-2,3-dihydro-1H-benzo[d]imidazol-5-yl)carbonohydrazonoyl dicyanide] | 73.9% | 32.8% | 82.5% | 40.6% | 78.1% | 0% | 200 nM |
| COc1cc(NN=C(C#N)C#N)cc2c1n(C)c(=O)n2C [Compound 33, (7-methoxy-1,3-dimethyl-2-oxo-2,3-dihydro-1H-benzo[d]imidazol-5-yl)carbonohydrazonoyl dicyanide] | >100% | 37.8% | >100% | 69.9% | 97.6% | −43% | 5 nM |
